Like-named read-outs stand apart in the source and are kept apart here.
What was measured:
KMT9 [1] = biological target: T1, KMT9 (Homo sapiens, UniProt Q9Y5N5); experiment: Microscale thermophoresis (MST) KMT9 binding; conditions: His-tag labelled KMT9 20 nM
T1 sequence (Q9Y5N5 1-214): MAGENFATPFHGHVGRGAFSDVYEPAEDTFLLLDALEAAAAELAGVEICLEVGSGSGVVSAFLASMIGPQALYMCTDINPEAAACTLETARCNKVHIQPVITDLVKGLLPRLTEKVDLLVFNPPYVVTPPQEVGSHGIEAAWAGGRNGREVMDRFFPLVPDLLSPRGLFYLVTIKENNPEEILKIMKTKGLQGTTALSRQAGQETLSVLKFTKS
T1 sequence (Q9UI30 1-120 isoform Q9UI30-2 partner): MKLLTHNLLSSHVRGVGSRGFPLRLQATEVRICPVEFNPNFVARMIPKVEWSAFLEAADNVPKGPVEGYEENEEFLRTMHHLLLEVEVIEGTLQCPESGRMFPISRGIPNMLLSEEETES
Method in brief: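 Kd from microscale thermophoresis: compound series against 20 nM His-KMT9 labelled via RED-Tris-NTA, buffer 25 mM HEPES (pH 7.5)/100 mM NaCl/1 mM DTT/0.05% Tween, 40% MST power, 100% LED. Reported as classes: A ≤10 nM, B >10–100 nM, C >100–1000 nM, D >1000 nM.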

KMT9 [2] = biological target: T1, KMT9; experiment: KMT9 thermal shift assay (SyproOrange); format: binding; conditions: 2 μM KMT9
Method in brief: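 ΔTm versus DMSO-only control is reported in bins (>20 K, 15–20 K, 10–15 K, ≤10 K), using Tm from Boltzmann sigmoidal fits of SyproOrange melt curves. KMT9 with compound in pH 8.5 BTP buffer containing MgCl2 and DTT was preincubated at 25° C, then ramped 1° C per 15 s up to 95° C.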

KMT9 [3] = biological target: T1, KMT9; experiment: KMT9 methyltransferase inhibition assay, MTaseGlo luminescence (from entry 155); format: biochemical; conditions: 100 nM KMT9, 5 μM ETF1, 1 μM SAM
Method in brief: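 KMT9 (100 nM final) pre-incubated with inhibitor for 15 min at room temperature, then reacted with 5 μM ETF1 and 1 μM SAM for 2 h at 30° C. at 2% DMSO final. MTaseGlo luminescence read after 60 min detection; IC50 reported in four potency bins.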

[4] = 500 µM compound, read-out: Thermal shift (ΔTm)
[5] = MTaseGlo procedure (entries from 155), read-out: Inhibition (IC50)
[6] = ΔTm class, 500 uM compound, read-out: Thermal shift
[7] = IC50 class, MTaseGlo procedure (entries from 155 on), read-out: Inhibition

Row | Compound | Kd (KMT9 [1]; read-out: MST (Kd)) | ΔTm at 500 µM (KMT9 [2]; [4]) | IC50 (KMT9 [3]; [5]) | Kd (KMT9 [1]; Kd class, read-out: MST) | ΔTm at 500 µM (KMT9 [2]; [6]) | IC50 (KMT9 [3]; [7])
1 | CN(CCCNCCc1ccc(F)cc1)C[C@H]1C[C@@H](n2cc(-c3nc(Cc4ccccc4)cs3)c3c(N)nc(Cl)nc32)[C@H](O)[C@@H]1O [Compound 647, (1R,2S,3R,5R)-3-(4-Amino-5-(4-benzylthiazol-2-yl)-2-chloro-7H-pyrrolo[2,3-d]pyrimidin-7-yl)-5-(((3-((4-fluorophenethyl)amino)propyl)(methyl)amino)methyl)cyclopentane-1,2-diol] | 0.01 to 0.1 µM | > 20 °C | 1 to 10 µM |  |  | 
2 | CN(CCCNCCc1ccc(F)cc1)C[C@H]1C[C@@H](n2cc(-c3nccs3)c3c(N)nc(Cl)nc32)[C@H](O)[C@@H]1O [Compound 648, (1R,2S,3R,5R)-3-[4-Amino-2-chloro-5-(1,3-thiazol-2-yl)pyrrolo[2,3-d]pyrimidin-7-yl]-5-{[(3-{[2-(4-fluorophenyl)ethyl]amino}propyl)(methyl)amino]methyl}cyclopentane-1,2-diol] | ≤ 0.01 µM | > 20 °C | 0.1 to 1 µM |  |  | 
3 | Nc1ncnc2c1ccn2[C@@H]1C[C@H](c2cccc(-c3cccnc3)c2)[C@@H](O)[C@H]1O [Compound 649, (1R,2S,3R,5R)-3-(4-amino-7H-pyrrolo[2,3-d]pyrimidin-7-yl)-5-(3-(pyridin-3-yl)phenyl)cyclopentane-1,2-diol] |  |  |  | > 1 µM | ≤ 10 °C | > 10 µM
4 | Nc1ncnc2c1ccn2[C@@H]1C[C@H](c2cccc(-c3cnsc3)c2)[C@@H](O)[C@H]1O [Compound 650, (1R,2S,3R,5R)-3-(4-amino-7H-pyrrolo[2,3-d]pyrimidin-7-yl)-5-(3-(isothiazol-4-yl)phenyl)cyclopentane-1,2-diol] |  |  |  | 0.1 to 1 µM | ≤ 10 °C | > 10 µM
5 | O[C@@H]1[C@H](O)[C@@H](C2=CCCN(CC(F)(F)F)C2)C[C@H]1n1cc(-c2nc(Cc3ccccc3)cs2)c2cnc(Cl)nc21 [Compound 651, (1R,2S,3R,5R)-3-[5-(4-Benzyl-1,3-thiazol-2-yl)-2-chloropyrrolo[2,3-d]pyrimidin-7-yl]-5-[1-(2,2,2-trifluoroethyl)-5,6-dihydro-2H-pyridin-3-yl]cyclopentane-1,2-diol] |  |  |  | > 1 µM | ≤ 10 °C | > 10 µM
6 | Nc1ncnc2c1ccn2[C@@H]1C[C@H](c2cccc(-c3cn[nH]c3)c2)[C@@H](O)[C@H]1O [Compound 652, (15,2R,3R,5R)-3-(3-(1H-pyrazol-4-yl)phenyl)-5-(4-amino-7H-pyrrolo[2,3-d]pyrimidin-7-yl)cyclopentane-1,2-diol] |  |  |  | > 1 µM | ≤ 10 °C | > 10 µM
7 | Nc1ncnc2c1ccn2[C@@H]1C[C@H](c2cccc(-c3cncs3)c2)[C@@H](O)[C@H]1O [Compound 653, (1R,2S,3R,5R)-3-(4-amino-7H-pyrrolo[2,3-d]pyrimidin-7-yl)-5-(3-(thiazol-5-yl)phenyl)cyclopentane-1,2-diol] |  |  |  | > 1 µM | ≤ 10 °C | > 10 µM
8 | Nc1ncnc2c1ccn2[C@@H]1C[C@H](c2cccc(-c3cscn3)c2)[C@@H](O)[C@H]1O [Compound 654, (1R,2S,3R,5R)-3-{4-aminopyrrolo[2,3-d]pyrimidin-7-yl}-5-[3-(1,3-thiazol-4-yl)phenyl]cyclopentane-1,2-diol] |  |  |  | > 1 µM | ≤ 10 °C | > 10 µM
9 | Nc1nc(Cl)nc2c1ccn2[C@@H]1C[C@H](c2ccc(O)cc2)[C@@H](O)[C@H]1O [Compound 655] | ≤ 0.01 µM | 10 to 15 °C | 0.1 to 1 µM |  |  | 
10 | CNc1nc(Cl)nc2c1ccn2[C@@H]1C[C@H](c2ccc(O)cc2)[C@@H](O)[C@H]1O [Compound 656, (1R,2S,3R,5R)-3-(2-chloro-4-(methylamino)-7H-pyrrolo[2,3-d]pyrimidin-7-yl)-5-(4-hydroxyphenyl)cyclopentane-1,2-diol] | 0.01 to 0.1 µM | ≤ 10 °C | 1 to 10 µM |  |  | 
11 | CNc1ncnc2c1ccn2[C@@H]1C[C@H](c2cn[nH]c2)[C@@H](O)[C@H]1O [Compound 657, (1R,2S,3R,5R)-3-[4-(Methylamino)pyrrolo[2,3-d]pyrimidin-7-yl]-5-(1H-pyrazol-4-yl)cyclopentane-1,2-diol] | > 1 µM | ≤ 10 °C | > 10 µM |  |  | 
12 | Nc1ncnc2c1ccn2[C@@H]1C[C@H](c2cn[nH]c2)[C@@H](O)[C@H]1O [Compound 658, (1R,2S,3R,5R)-3-{4-Aminopyrrolo[2,3-d]pyrimidin-7-yl}-5-(1H-pyrazol-4-yl)cyclopentane-1,2-diol] | > 1 µM | ≤ 10 °C | > 10 µM |  |  | 
13 | NCc1cccc([C@H]2C[C@@H](n3ccc4c(N)ncnc43)[C@H](O)[C@@H]2O)c1 [Compound 659, (1R,2S,3R,5R)-3-(4-Amino-7H-pyrrolo[2,3-d]pyrimidin-7-yl)-5-(3-(aminomethyl)phenyl)cyclopentane-1,2-diol] | 0.1 to 1 µM | ≤ 10 °C | 1 to 10 µM |  |  | 

Now from value to compound:

Row | Kd (KMT9 [1]; read-out: MST (Kd)) | ΔTm at 500 µM (KMT9 [2]; [4]) | IC50 (KMT9 [3]; [5]) | Kd (KMT9 [1]; Kd class, read-out: MST) | ΔTm at 500 µM (KMT9 [2]; [6]) | IC50 (KMT9 [3]; [7]) | Compound
14 | ≤ 0.01 µM | 15 to 20 °C | < 0.1 µM |  |  |  | NCc1cccc([C@H]2C[C@@H](n3ccc4c(N)nc(Cl)nc43)[C@H](O)[C@@H]2O)c1 [Compound 660, (1R,2S,3R,5R)-3-{4-Amino-2-chloropyrrolo[2,3-d]pyrimidin-7-yl}-5-[3-(aminomethyl)phenyl]cyclopentane-1,2-diol]
15 | 0.1 to 1 µM | ≤ 10 °C | 1 to 10 µM |  |  |  | Cn1cc([C@H]2C[C@@H](n3ccc4c(N)nc(Cl)nc43)[C@H](O)[C@@H]2O)cn1 [Compound 661, (1R,2S,3R,5R)-3-(4-Amino-2-chloro-7H-pyrrolo[2,3-d]pyrimidin-7-yl)-5-(1-methyl-1H-pyrazol-4-yl)cyclopentane-1,2-diol]
16 | 0.1 to 1 µM | ≤ 10 °C | 1 to 10 µM |  |  |  | Nc1nc(Cl)nc2c1ccn2[C@@H]1C[C@H](c2cc[nH]c(=O)c2)[C@@H](O)[C@H]1O [Compound 662, 4-[(1R,2R,3S,4R)-4-{4-Amino-2-chloropyrrolo[2,3-d]pyrimidin-7-yl}-2,3-dihydroxycyclopentyl]-1H-pyridin-2-one]
17 | 0.01 to 0.1 µM | ≤ 10 °C | 0.1 to 1 µM |  |  |  | COc1cc([C@H]2C[C@@H](n3ccc4c(N)nc(Cl)nc43)[C@H](O)[C@@H]2O)ccn1 [Compound 663, (1R,2S,3R,5R)-3-{4-Amino-2-chloropyrrolo[2,3-d]pyrimidin-7-yl}-5-(2-methoxypyridin-4-yl)cyclopentane-1,2-diol]
18 | 0.01 to 0.1 µM | 10 to 15 °C | 0.1 to 1 µM |  |  |  | COc1cc(OC)cc([C@H]2C[C@@H](n3ccc4c(N)nc(Cl)nc43)[C@H](O)[C@@H]2O)c1 [Compound 664, (1R,2S,3R,5R)-3-{4-Amino-2-chloropyrrolo[2,3-d]pyrimidin-7-yl]-5-(3,5-dimethoxyphenyl)cyclopentane-1,2-diol]
19 | ≤ 0.01 µM | 15 to 20 °C | 0.1 to 1 µM |  |  |  | COc1cc(CN)cc([C@H]2C[C@@H](n3ccc4c(N)nc(Cl)nc43)[C@H](O)[C@@H]2O)c1 [Compound 665, (1R,2S,3R,5R)-3-(4-amino-2-chloro-7H-pyrrolo[2,3-d]pyrimidin-7-yl)-5-(3-(aminomethyl)-5-methoxyphenyl)cyclopentane-1,2-diol]
20 | 0.01 to 0.1 µM | 10 to 15 °C | 0.1 to 1 µM |  |  |  | COc1cc(Br)cc([C@H]2C[C@@H](n3ccc4c(N)nc(Cl)nc43)[C@H](O)[C@@H]2O)c1 [Compound 666, (1R,2S,3R,5R)-3-(4-amino-2-chloro-7H-pyrrolo[2,3-d]pyrimidin-7-yl)-5-(3-bromo-5-methoxyphenyl)cyclopentane-1,2-diol]
21 | 0.01 to 0.1 µM | 10 to 15 °C | 1 to 10 µM |  |  |  | COc1cc(-c2cnsc2)cc([C@H]2C[C@@H](n3ccc4c(N)nc(Cl)nc43)[C@H](O)[C@@H]2O)c1 [Compound 667, (1R,2S,3R,5R)-3-(4-amino-2-chloro-7H-pyrrolo[2,3-d]pyrimidin-7-yl)-5-(3-(isothiazol-4-yl)-5-methoxyphenyl)cyclopentane-1,2-diol]
22 | 0.1 to 1 µM | ≤ 10 °C | 1 to 10 µM |  |  |  | Nc1nc(Cl)nc2c1ccn2[C@@H]1C[C@H](c2cccc(OC(F)(F)F)c2)[C@@H](O)[C@H]1O [Compound 668, (1R,2S,3R,5R)-3-(4-amino-2-chloro-7H-pyrrolo[2,3-d]pyrimidin-7-yl)-5-(3-(trifluoromethoxy)phenyl)cyclopentane-1,2-diol]
